Like-named read-outs stand apart in the source and are kept apart here. Blank lines part the entries; values can stand above or below the molecule they belong to.
Legend:
[1] = tested on: Srebp1 target genes; test: cholesterol gene profile in Mut6 cells, Srebp1 targets; format: cell-based, mouse; conditions: Mut6 cells, 2, 9, 16, 24 and 48 hr vs DMSO
Method: (§1) In FIG. 13(a)-(e) Mut6 cells were treated with compound 4C12 for 2, 9, 16, 24, and 48 hr, respectively, and their cholesterol gene profile compared to a DMSO control. […] (f) Western blot. Mut6 cells were treated with vehicle only (−) or with compound 4C12 (+) for 7 hr, 13 hr and 23 hr. Cells were collected, lysed in SDS buffer, subjected to SDS PAGE, and cell proteins transferred to a membrane by a standard protocol.

[2] = tested on: Srebp2 target genes in MEFs; test: relative mRNA level of cholesterol biosynthesis pathway target genes in MEFs; format: cell-based, mouse; conditions: vs dmso (FIG. 16)
Text: (§2) FIG. 16 is a bar graph of relative mRNA level for cholesterol biosynthesis pathway target genes Hmgcs, Hmgcr, FPPS, LDLR; and SREBP1c in mouse embryo fibroblasts (left) and astrocytes (right) treated with compound 4C12 or dmso (negative control).

[3] = tested on: Mut6 cells; test: cell-based wash-out time course with ATP assay at 96 hours (FIG. 8); design: species or system mouse
Method: FIGS. 8A-B comprising FIG. 8A and FIG. 8B show the identification of molecular changes between 6 hr and 24 hr time points. […] Cells were plated 48 hours before treatment with test compounds Compound 1, Compound 2 and 4C12, and a negative control. Cultures then were treated with the test compound. The media was removed and cells washed twice. Fresh media was added without compound. Data points were 6 hr, 22 hr, 33 hr, 51 hr, 71 hr and continuous. Molecular changes were identified between the 6 hr and 24 hr time points. An ATP assay was performed at 96 hours. On day 2, Cells treated with 4C12 were round-shaped. […] On day 4, 10-20% of the cells were apoptotic. By day 5, 80-90% of the cells were apoptotic.

[4] = tested on: Normal astrocytes; test: ATP viability of normal astrocytes treated with increasing concentrations; format: cell-based, mouse; conditions: increasing concentrations (FIG. 7A)
Method: (§3) A luminescence-based Celltiter-Glo® assay was performed to measure cell viability, using ATP levels as the readout. In brief, opaque-walled multiwell plates with Mut6 cells in culture medium (25 μl per well, 384-well plates) were prepared. Control wells containing medium without cells were prepared to obtain a value for background luminescence. Test compounds were added to experimental wells, and incubated according to culture protocol. The plate and its contents were incubated at 37° C., 5% […] for 96 hours. An ATP standard curve was generated immediately prior to adding the CellTiter-Glo® Reagent. A volume of CellTiter-Glo® Reagent equal to the volume of cell culture medium present in each well (25 μl of reagent to 25 μl of medium containing cells for a 384-well plate) was added. The contents were mixed for 2 minutes on an orbital shaker to induce cell lysis. The plate was allowed to incubate at room temperature for 10 minutes to stabilize the luminescent signal and luminescence recorded. (e.g. GloMax®, Lumistar, SPECTROstar, PHERAstar FS).
(§4) Normal astrocytes, Mut6 cells and mouse embryonic fibroblasts were treated with increasing concentrations of compound 4C12. […] Normal astrocytes and MEFs were unaffected by compound 4C12.

[5] = tested on: cholesterol biosynthesis pathway (Srebp2 target genes); test: microarray and mRNA levels of cholesterol synthesis genes in Mut6 cells; format: cell-based, mouse
Method: Microarray analysis was conducted to identify overrepresented pathways associated with treatment with compound 4C12 for 48 hr.
(§5) FIG. 12A is a bar graph showing cholesterol (pg/cell), and triglyceride (pg/cell) levels in Mut6 cells treated with compound 4C12 for 24 hours and 48 hours, versus a negative control (vehicle only). […] Mut6 cells were treated with compound 4C12 for 24 hours and then mRNA levels for Hydroxymethylglutaryl-CoA synthase(Hmgcs); 3-hydroxy-3-methylglutaryl-coenzyme A reductase (Hmgcr); acetoacetyl-CoA synthetase (AACS); Delta(24)-sterol reductase (Dhcr24); 7-dehydrocholesterol reductase (Dhcr7), Sterol C5-desaturase (Sc5d); Squalene synthase (SS); and farnesyl pyrophosphate (FPP) synthase (FPPS) were determined.
as §1

[6] = tested on: mouse embryonic fibroblasts (MEFs); test: ATP viability of mouse embryonic fibroblasts treated with increasing concentrations; format: cell-based; conditions: increasing concentrations (FIG. 7A)
Method: as §3, §4

[7] = tested on: SREBP2; test: Western blot of SREBP proteins in Mut6 cells; format: cell-based, mouse; conditions: 7 hr, 13 hr and 23 hr
Method: as §1

[8] = tested on: Mut6 cells; test: cholesterol and triglyceride level (pg/cell) in treated cells; format: cell-based, mouse
Method: as §5
FIG. 17 compares cholesterol level (pg/cell) (Left) and triglyceride level (pg/cell) (Right) in Mut6 cells and in MEF cells treated with compound 4C12 for 24 hours and 48 hours to a negative control (vehicle).

[9] = tested on: Mut6 cells (TD-NSC); test: luminescence-based Celltiter-Glo cell viability assay (ATP levels) on Mut6 tumor derived neuronal stem cells; design: species or system mouse
Procedure, shortened: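 Primary tumor-derived neural stem cells from pooled Mut6 (p53/Pten/Nf1 conditional knockout) GBM tumors, serum-free with defined growth factors. Compound exposure 96 h at 37° C., 5% oxygen; viability by CellTiter-Glo ATP luminescence with cell-free background wells, giving IC50 curves.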

[10] = tested on: Srebp2 target genes in Astrocytes; test: relative mRNA level of cholesterol biosynthesis pathway target genes in astrocytes; format: cell-based, mouse; conditions: vs dmso (FIG. 16)
Text: as §2

[11] = S9 Metabolism Assay (half-life by substrate depletion); format: in vitro ADME; conditions: female, ICR/CD-1, S9 fractions, pH 7.5; mouse S9, 2 μM compound; time plotted in min; read-out: S9 T1/2
Method: Female ICR/CD-1 mouse S9 fractions were purchased from Celsis/In Vitro Technologies (Baltimore, Md.). 25 μl (0.5 mg) of S9 protein was added to a 15 ml glass screw cap tube. 350 μl of a 50 mM Tris, pH 7.5 solution, containing the compound of interest was added on ice. The final concentration of compound after addition of all reagents was 2 μM. 125 μl of an NADPH-regenerating system (1.7 mg/ml NADP, 7.8 mg/ml glucose-6-phosphate, 6 U/ml glucose-6-phosphate dehydrogenase in 2% w/v NaHCO3/10 mm MgCl2) was added for analysis of Phase I metabolism. Uridine 5′-diphospho-α-D-glucuronic acid (UDPGA 1.9 mg/ml) and 3′-phosphoadenosine-5′-phosphosulphate (PAPS, 100 mg/ml) were additionally added for phase II reactions. The tube was then placed in a 37° C. shaking water bath. At varying time points after addition of phase I and phase II cofactors, the reaction was stopped by the addition of 0.5 ml of methanol containing 0.2% formic acid and 200 ng/ml internal standard (either n-benzylbenzamide or tolbutamide, Sigma, St. Louis, Mo.). The samples were incubated 10′ at RT and then spun at 16,100×g for 5 min in a microcentrifuge. The supernatant was analyzed by LC-MS/MS. Metabolism of 7-ethoxycoumarin was used to monitor […] performance. Analytical methods were developed for each compound using an Applied Biosystems (Foster City, Calif.) 4000-QTrap, a combination triple quadrupole/ion trap instrument. The parent ion and the two most prominent daughter ions were followed to confirm compound identity, although only the most abundant daughter was used for quantitation. A Shimadzu (Columbia, Md.) Prominence LC with Agilent C18 XDB column (5 micron packing; 50×4.6 mm) was used for chromatography.
The method described in McNaney, et al (McNaney, C A, D M Drexler, S Hnatyshyn, T A Zvyaga, J O Knipe, J V Belcastro, and M Sanders. 2008. An automated liquid chromatography-mass spectrometry process to determine metabolic stability half-life and intrinsic clearance of drug candidates by substrate depletion. Assay and Drug Development Technologies 6:121-129. Determination of Plasma and Brain Pharmacokinetics) was used with modification for determination of metabolic stability half-life by substrate depletion. A “% remaining” value was used to assess metabolic stability of a compound over time. The LC/MS/MS peak area of the incubated sample at each time point was divided by the LC/MS/MS peak area of the time 0 (TO) sample and multiplied by 100. The natural Log (LN) of the % remaining of compound was then plotted versus time (in min) and a linear regression curve plotted going through y-intercept at LN(100).

[12] = Mut6 cells, 24 hours and 48 hours
[13] = Mus musculus, 96 h, ATP activity as measure of viability, 96 hours, read-out: EC50 (TD-NSC)

- EC50 ([9]; Mus musculus, relative ATP activity versus concentration (FIG. 7A), read-out: ED50 against Mut6 cells): 0.05 µM
Structure (SMILES): CCN1CCCC1CNC(=O)c1ccc(Sc2ccc(F)cc2)c([N+](=O)[O-])c1 (centres unmarked) [4C12, N-((1-ethylpyrrolidin-2-yl)methyl)-4-((4-fluorophenyl)thio)-3-nitrobenzamide]
- effect on Srebp1 target genes [1]: not Srebp1 target genes
- Srebp2 target genes mRNA in MEFs [2]: not decreased
- cell shape ([3]; day 2): round-shaped
- cell cycle state ([3]; day 3): arrested in G2
- apoptotic cells ([3]; day 4): 10-20%
- apoptotic cells ([3]; day 5): 80-90%
- relative ATP activity versus time ([3]; relative to the control (FIG. 8B)): reduced ATP activity as a function of time
- effect on viability of normal astrocytes [4]: unaffected
- effect on Srebp2 target genes ([5]; Mut6 cells, 2, 9, 16, 24 and 48 hr vs DMSO): inhibits Srebp2 target genes
- relative mRNA of genes for cholesterol synthesis enzymes ([5]; Mut6 cells, 24 hours): down-regulated
- overrepresented pathways by microarray ([5]; treatment for 48 hr): deregulates the cholesterol biosynthesis pathway
- effect on viability of MEFs [6]: unaffected
- SREBP2 protein (Western blot) [7]: effective to decrease SREBP2 protein
- specificity of cholesterol decrease ([8]; Mut6 cells vs MEF cells, 24 and 48 hours (FIG. 17)): specific to Mut6 tumor cells
- cholesterol (pg/cell) [8, 12]: decreases
- triglyceride (pg/cell) [8, 12]: increases
- compound-induced cell-death with addition of cholesterol ([9]; Mut6 cells (FIG. 15(b))): inhibits
- sensitivity after knock-down of Insig1/Insig2 ([9]; Mut6 cells (FIG. 15(c))): less sensitive
- live cells (%) ([9]; Mut6 tumor cells viable after 96 hours (FIG. 7C)): 50%
- Srebp2 target genes mRNA in Astrocytes [10]: not decreased

- half-life at 2 μM [11]: 1.75 h
- EC50 [9, 13]: 0.079 µM
Structure (SMILES): CN1CCCC1CCNC(=O)c1ccc(Sc2ccc(F)cc2)c([N+](=O)[O-])c1 (centres unmarked) [DS-1-061, 4-((4-fluorophenyl)thio)-N-(2-(1-methylpyrrolidin-2-yl)ethyl)-3-nitrobenzamide]

- half-life at 2 μM [11]: 0.75 h
- EC50 ([9]; ATP activity as measure of viability, 96 hours, read-out: EC50 (TD-NSC)): 0.022 µM
Structure (SMILES): CCN(CC)CCNC(=O)c1ccc(Sc2ccc(F)cc2)c([N+](=O)[O-])c1 [DS-1-043, N-(2-(diethylamino)ethyl)-4-((4-fluorophenyl)thio)-3-nitrobenzamide]

- half-life at 2 μM [11]: 1.46 h
- EC50 [9, 13]: 0.051 µM
Structure (SMILES): CCN1CCCC1CNC(=O)c1ccc(Sc2ccc(F)cc2F)c([N+](=O)[O-])c1 (centres unmarked) [DS-1-125, 4-((2,4-difluorophenyl)thio)-N-((1-ethylpyrrolidin-2-yl)methyl)-3-nitrobenzamide]

- half-life at 2 μM [11]: 3.12 h
- EC50 [9, 13]: 0.052 µM
Structure (SMILES): O=C(NCCN1CCCC1)c1ccc(Sc2ccc(F)cc2)c([N+](=O)[O-])c1 [DS-1-063, 4-((4-fluorophenyl)thio)-3-nitro-N-(2-(pyrrolidin-1-yl)ethyl)benzamide]

- half-life at 2 μM [11]: 0.59 h
- EC50 [9, 13]: 0.05 µM
Structure (SMILES): CCN1CCCC1CNC(=O)c1ccc(Sc2ccccc2)c([N+](=O)[O-])c1 (centres unmarked) [DS-1-055, N-((1-ethylpyrrolidin-2-yl)methyl)-3-nitro-4-(phenylthio)benzamide]

- half-life at 2 μM [11]: > 4 h
- EC50 [9, 13]: 0.236 µM
Structure (SMILES): CCN1CCCC1CNC(=O)c1ccc(Sc2ccc(F)cc2)c(S(C)(=O)=O)c1 (centres unmarked) [DS-1-301, N-((1-ethylpyrrolidin-2-yl)methyl)-4-((4-fluorophenyl)thio)-3-(methylsulfonyl)benzamide]

- half-life at 2 μM [11]: 4 h
- EC50 [9, 13]: 0.132 µM
Structure (SMILES): O=C(NC[C@@H]1CCCN1)c1ccc(Sc2ccc(F)cc2)c([N+](=O)[O-])c1 [DS-1-085, (S)-4-((4-fluorophenyl)thio)-3-nitro-N-(pyrrolidin-2-ylmethyl)benzamide]

- half-life at 2 μM [11]: 1.65 h
- EC50 [9, 13]: 0.074 µM
Structure (SMILES): N#Cc1cc(C(=O)NCCN2CCOCC2)ccc1Oc1ccc(F)cc1 [DS-2-045, 3-cyano-4-(4-fluorophenoxy)-N-(2-morpholinoethyl)benzamide]

- half-life at 2 μM [11]: 0.802 h
- EC50 [9, 13]: 0.062 µM
Structure (SMILES): CCN1CCCC1CNC(=O)c1ccc(Sc2ccc(OC)cc2)c([N+](=O)[O-])c1 (centres unmarked) [DS-1-133, N-((1-ethylpyrrolidin-2-yl)methyl)-4-((4-methoxyphenyl)thio)-3-nitrobenzamide]

- half-life at 2 μM [11]: 1.6 h
- EC50 [9, 13]: 0.035 µM
Structure (SMILES): CCN1CCCC1CNC(=O)c1ccc(SCc2ccc(F)cc2)c([N+](=O)[O-])c1 (centres unmarked) [DS-1-131, N-((1-ethylpyrrolidin-2-yl)methyl)-4-((4-fluorobenzyl)thio)-3-nitrobenzamide]

— patent US11548894B2, “Benzamide or benzamine compounds useful as anticancer agents for the treatment of human cancers” (The Board of Regents of the University of Texas System, priority 2015, dated 2023)
